For 17 compounds, EC50, IC50 and Activity results are on record in ChEMBL document CHEMBL1147183, “Design, synthesis, and evaluation of non-steroidal farnesoid X receptor (FXR) antagonist” (Bioorg Med Chem, 2007).

Active and inactive are the calls of the source. The calls are words filed in the database; no cut-off is given here.

Test [1] addresses T1, Bile acid receptor (Homo sapiens, UniProt Q96RI1).
T1 sequence (Q96RI1 whole entry): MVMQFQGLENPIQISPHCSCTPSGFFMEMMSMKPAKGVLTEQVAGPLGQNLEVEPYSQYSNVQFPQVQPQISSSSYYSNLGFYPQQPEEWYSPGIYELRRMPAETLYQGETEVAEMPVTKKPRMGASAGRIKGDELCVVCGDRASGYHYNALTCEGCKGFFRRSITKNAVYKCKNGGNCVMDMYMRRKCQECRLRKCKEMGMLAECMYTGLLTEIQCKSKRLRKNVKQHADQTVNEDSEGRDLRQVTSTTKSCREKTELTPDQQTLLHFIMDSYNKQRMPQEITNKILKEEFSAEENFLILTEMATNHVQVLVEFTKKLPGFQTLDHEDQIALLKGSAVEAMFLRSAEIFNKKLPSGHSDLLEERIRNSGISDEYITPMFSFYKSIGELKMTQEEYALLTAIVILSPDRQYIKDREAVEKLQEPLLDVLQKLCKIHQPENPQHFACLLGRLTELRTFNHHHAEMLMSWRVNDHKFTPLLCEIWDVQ
As to the kind of experiment: Agonistic activity at FXR in HEK293 cells by GAL4 transactivation activity. The class given is functional, cell-based.

In test [2] the target is T1, Bile acid receptor. The test can be described thus: Inhibition of FXR in HEK293 cells in presence of CDCA by GAL4 transactivation activity. Type of test: cell-based.
Test [3] addresses T2, Bile acid receptor (Homo sapiens) (UniProt Q96RI1).
T2 sequence (whole entry): T1 sequence (Q96RI1 whole entry)
As to the kind of experiment: Agonistic activity at FXR in HEK293 cells at 100 uM by GAL4 transactivation activity. Type of test: functional, cell-based.

Test [4] deals with T2, Bile acid receptor (Homo sapiens). The test can be described thus: Activity at FXR assessed by ligand-induced co-repressor recruitment by two-hybrid assay system.
For test [5], the target named is T3, Progesterone receptor (Homo sapiens) (UniProt P06401).
T3 sequence (whole entry): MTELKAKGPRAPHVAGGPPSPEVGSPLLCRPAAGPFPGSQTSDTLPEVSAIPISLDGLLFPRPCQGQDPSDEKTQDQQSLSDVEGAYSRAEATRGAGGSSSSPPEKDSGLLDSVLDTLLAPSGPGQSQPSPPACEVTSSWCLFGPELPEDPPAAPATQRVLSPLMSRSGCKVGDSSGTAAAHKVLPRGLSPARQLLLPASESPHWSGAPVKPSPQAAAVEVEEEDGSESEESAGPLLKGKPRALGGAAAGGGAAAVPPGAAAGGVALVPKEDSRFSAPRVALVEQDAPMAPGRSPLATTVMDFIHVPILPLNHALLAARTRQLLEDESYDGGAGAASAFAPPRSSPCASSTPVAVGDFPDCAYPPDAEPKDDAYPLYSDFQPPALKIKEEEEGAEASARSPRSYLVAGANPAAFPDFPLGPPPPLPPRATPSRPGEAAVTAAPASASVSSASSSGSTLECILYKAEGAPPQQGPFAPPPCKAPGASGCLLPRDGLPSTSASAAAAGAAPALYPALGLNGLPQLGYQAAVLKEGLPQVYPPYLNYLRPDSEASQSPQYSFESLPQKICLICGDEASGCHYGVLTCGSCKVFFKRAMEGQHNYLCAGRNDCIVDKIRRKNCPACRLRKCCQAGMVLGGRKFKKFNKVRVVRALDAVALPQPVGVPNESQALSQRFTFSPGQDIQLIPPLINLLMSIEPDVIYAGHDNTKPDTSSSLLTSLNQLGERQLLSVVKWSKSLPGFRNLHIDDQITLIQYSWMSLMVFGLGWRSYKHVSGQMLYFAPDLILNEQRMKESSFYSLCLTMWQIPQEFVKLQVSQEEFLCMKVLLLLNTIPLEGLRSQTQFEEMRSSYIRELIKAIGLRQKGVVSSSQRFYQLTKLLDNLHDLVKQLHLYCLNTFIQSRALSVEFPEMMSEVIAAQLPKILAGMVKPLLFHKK
As to the kind of experiment: Activity against PR by transactivation activity at 30 uM.

For orientation: EC50 means the concentration needed to bring the measured effect to its halfway point. `CC(C)c1onc(-c2c(Cl)cccc2Cl)c1COc1ccc(/C=C/c2cccc(C(=O)N(Cc3ccccc3)Cc3ccccc3)c2)c(Cl)c1`: the EC50 at Bile acid receptor [1] turned out to be 35.1 µM.

In general, IC50 refers to the concentration that gives 50% inhibition. For `O=C(O)c1cccc(/C=C/c2ccc(OCc3c(-c4c(Cl)cccc4Cl)noc3-c3ccccc3)cc2Cl)c1`, the IC50 on Bile acid receptor [2] came to 15.8 µM. For the same compound, the outcome in test [3] was inactive.

Regarding `CC(C)c1onc(-c2c(Cl)cccc2Cl)c1COc1ccc(C(=O)N(Cc2ccccc2)c2cccc(C(=O)O)c2)c(Cl)c1`, a half-maximal effect at Bile acid receptor [1] (EC50) was put at 2.5 µM.

Regarding `O=C(O)c1cccc(/C=C/c2ccc(OCc3c(-c4c(Cl)cccc4Cl)noc3-c3ccc4ccccc4c3)cc2Cl)c1`, the IC50 at Bile acid receptor [2] is 22.2 µM. Besides, the result in test [3] was inactive.

With `C/C=C1\C(=O)C[C@H]2[C@@H]3CCC4=CC(=O)CC[C@]4(C)[C@H]3CC[C@]12C`, the outcome in test [4] and in test [3] was inactive.

`CC(C)(C)c1onc(-c2c(Cl)cccc2Cl)c1COc1ccc(/C=C/c2cccc(C(=O)O)c2)c(Cl)c1` registered an EC50 on Bile acid receptor [1] of 1.3 µM.

On to `CC(C)c1onc(-c2ccc3ccccc3c2)c1COc1ccc(/C=C/c2cccc(C(=O)O)c2)c(Cl)c1`, for which the result in test [3] was inactive.

As to `CC(C)(C)c1onc(-c2c(Cl)cccc2Cl)c1COc1ccc(C(=O)Nc2cccc(C(=O)O)c2)c(Cl)c1`, on Bile acid receptor [1], the response was half-maximal at 1.3 µM (EC50).

Consider `CC(C)c1onc(-c2ccc(-c3ccccc3)cc2)c1COc1ccc(/C=C/c2cccc(C(=O)O)c2)c(Cl)c1`, for which the result in test [3] was inactive.

As for `O=C(O)c1cccc(/C=C/c2ccc(OCc3c(-c4c(Cl)cccc4Cl)noc3-c3ccc(-c4ccccc4)cc3)cc2Cl)c1`, at Bile acid receptor [2], the IC50 turned out to be 33.9 µM. Further, the result in test [3] was inactive.

Consider `CC(C)c1onc(-c2c(Cl)cccc2Cl)c1COc1ccc(C(=O)Nc2cccc(C(=O)O)c2)c(Cl)c1`, for which the EC50 at Bile acid receptor [1] worked out at 3 µM.

At Bile acid receptor [1], `CC(C)c1onc(-c2c(Cl)cccc2Cl)c1COc1ccc(C(=O)N(C)c2cccc(C(=O)O)c2)c(Cl)c1` gave an EC50 of 3.1 µM.

`CCCN(C(=O)c1ccc(OCc2c(-c3c(Cl)cccc3Cl)noc2C(C)C)cc1Cl)c1cccc(C(=O)O)c1` came in with an EC50 on Bile acid receptor [1] of 2.1 µM.

On to `O=C(O)c1cccc(NC(=O)c2ccc(OCc3c(-c4c(Cl)cccc4Cl)noc3-c3ccc(-c4ccccc4)cc3)cc2Cl)c1`, for which, on Bile acid receptor [2], the IC50 came out at 3.7 µM. The result in test [5] was Active. Further, the outcome in test [3] was inactive.

Regarding `O=C(O)c1cccc(NC(=O)c2ccc(OCc3c(-c4c(Cl)cccc4Cl)noc3-c3ccc4ccccc4c3)cc2Cl)c1`, the IC50 on Bile acid receptor [2] is 4 µM. The result in test [5], in test [4] and in test [3] was inactive.

In the case of `CCCNC(=O)c1cccc(/C=C/c2ccc(OCc3c(-c4c(Cl)cccc4Cl)noc3C(C)C)cc2Cl)c1`, at Bile acid receptor [1], the EC50 stood at 9 µM.

For the compound `CC(C)c1onc(-c2c(Cl)cccc2Cl)c1COc1ccc(C(=O)N(CCc2ccccc2)c2cccc(C(=O)O)c2)c(Cl)c1`, at Bile acid receptor [1], a half-maximal response (EC50) required 0.84 µM.
